# Patent US20090030024A1, “THIAZOLES AS FUNGICIDES” (priority 2005, published 2009)
# Assay: logP determination by retention times (calibration with alkan-2-ones)
# Details: not given
row,Compound,chromatographic logP
1,"Cc1nc(C2CC2)sc1-c1ccnc(Nc2cccc(C(=O)O)c2)n1 [Example 147, 3-{[4-(2-cyclopropyl-4-methyl-1,3-thiazol-5-yl)pyrimidin-2-yl]amino}benzoic acid]",2.27
2,"Cc1nc(C2CC2)sc1-c1ccnc(Nc2ccccc2)n1 [Example 231, 4-(2-cyclopropyl-4-methyl-1,3-thiazol-5-yl)-N-phenylpyrimidine-2-amine]",3.26
3,"COC(=O)Nc1ccc(Nc2nccc(-c3sc(C)nc3C)n2)cc1 [Example 380, methyl-(4-{[4-(2,4-dimethyl-1,3-thiazol-5-yl)pyrimidin-2-yl]amino}phenyl)carbamate]",1.84
4,"Cc1nc(N)sc1-c1ccnc(Nc2ccc(F)cc2)n1 [Example 208, 4-(2-amino-4-methyl-1,3-thiazol-5-yl)-N-(4-fluorophenyl)pyrimidine-2-amine]",1.56

# Same assay, conditions: * HPLC reversed-phase C18, 40° C., mobile phase 0.1% aqueous formic acid and acetonitrile, linear gradient 10% to 95% acetonitrile
row,Compound,logP
1,"CN(C)c1nc(C(F)(F)F)c(-c2ccnc(Nc3ccc(I)cc3)n2)s1 [Example 778, 4-[2-(dimethylamine)-4-(trifluoromethyl)-1,3-thiazol-5-yl]-N-(4-iodophenyl)pyrimidine-2-amine]",4.88*

# Same assay, conditions: logP, * HPLC reversed-phase C18, 40° C., mobile phase 0.1% aqueous formic acid and acetonitrile, linear gradient 10% to 95% acetonitrile
row,Compound,chromatographic logP
1,"COCc1nc(C)c(-c2ccnc(Nc3cccc(CNC(=O)OC(C)(C)C)c3)n2)s1 [Example 639, tert-butyl-[3-({4-[2-(methoxymethyl)-4-methyl-1,3-thiazol-5-yl]pyrimidin-2-yl}amino)benzyl]carbamate]",2.94
2,"COCCNc1nc(C)c(-c2ccnc(Nc3cccc(O)c3)n2)s1 [Example 690, 3-[(4-{2-[(2-methoxyethyl)amino]-4-methyl-1,3-thiazol-5-yl}pyrimidin-2-yl)amino]phenol]",1.38
3,"CCc1nc(C)c(-c2ccnc(Nc3ccc(N4CCCC4=O)cc3)n2)s1 [Example 748, 1-(4-{[4-(2-ethyl-4-methyl-1,3-thiazol-5-yl)pyrimidin-2-yl]amino}phenyl)pyrrolidin-2-one]",2.24
4,"CCc1nc(C)c(-c2ccnc(Nc3ccc(Cl)cc3Cl)n2)s1 [Example 794, N-(2,4-dichlorophenyl)-4-(2-ethyl-4-methyl-1,3-thiazol-5-yl)pyrimidine-2-amine]",4.9
5,"CC(=O)Nc1ccc(Nc2nccc(-c3sc(NCC4CCCO4)nc3C)n2)cc1 (stereo not shown) [Example 580, N-{4-[(4-{4-methyl-2-[(tetrahydrofuran-2-ylmethyl)amino]-1,3-thiazol-5-yl}pyrimidin-2-yl)amino]phenyl}acetamide]",1.39
6,"COc1cc(N(C(C)=O)c2nccc(-c3sc(C)nc3C)n2)cc(OC)c1OC [Example 667, N-[4-(2,4-dimethyl-1,3-thiazol-5-yl)pyrimidin-2-yl]-N-(3,4,5-trimethoxyphenyl)acetamide]",1.9
7,"COC(=O)NCc1cccc(Nc2nccc(-c3sc(SC)nc3C)n2)c1 [Example 712, methyl-[3-({4-[4-methyl-2-(methylthio)-1,3-thiazol-5-yl]pyrimidin-2-yl}amino)benzyl]carbamate]",2.16

# Same assay, conditions: logP, values marked *: HPLC on reversed-phase C 18, 40° C., mobile phase 0.1% aqueous formic acid and acetonitrile, linear gradient 10% to 95% acetonitrile
row,Compound,chromatographic logP
1,"COCCOc1nc(C)c(-c2ccnc(Nc3cccc([N+](=O)[O-])c3)n2)s1 [Example 911, 4-[2-(2-methoxyethoxy)-4-methyl-1,3-thiazol-5-yl]-N-(3-nitrophenyl)pyrimidine-2-amine]",3.08
2,"COCC(C)Nc1nc(C)c(-c2ccnc(Nc3ccc4c(c3)C(=O)OC4)n2)s1 (stereo not shown) [Example 889, 6-[(4-{2-[(2-methoxy-1-methylethyl)amino]-4-methyl-1,3-thiazol-5-yl}pyrimidin-2-yl)amino]-2-benzofuran-1(3H)-one]",1.65
3,"COCCNc1nc(C)c(-c2ccnc(Nc3ccc(Cl)cc3)n2)s1 [Example 898, N-(4-chlorophenyl)-4-{2-[(2-methoxyethyl)amino]-4-methyl-1,3-thiazol-5-yl}pyrimidine-2-amine]",2.24
4,"CCc1nc(C)c(-c2nc(Nc3cc(OC)c(OC)c(OC)c3)ncc2Br)s1 [Example 905, 5-bromo-4-(2-ethyl-4-methyl-1,3-thiazol-5-yl)-N-(3,4,5-trimethoxyphenyl)pyrimidine-2-amine]",3.29
